# Source: patent US7700728B2, “Use of chimeric receptors in a screening assay for identifying agonists and antagonists of cell receptors” (Schering Corporation, priority 2005, dated 2010)
# How the values were obtained:
# [1] = target: T1, chimeric TLR3/CD32a receptor (Homo sapiens, UniProt O15455); assay: Calcium mobilization in U937 cells transiently transfected with pTLR3/CD32a; assay type: cell-based
# T1 construct: expressed in transfected cells; host or cells: U937 cells, transiently or stably transfected with pTLR3/CD32a (pMET7 vector)
# T1 sequence (O15455 with tags, fused parts or gaps): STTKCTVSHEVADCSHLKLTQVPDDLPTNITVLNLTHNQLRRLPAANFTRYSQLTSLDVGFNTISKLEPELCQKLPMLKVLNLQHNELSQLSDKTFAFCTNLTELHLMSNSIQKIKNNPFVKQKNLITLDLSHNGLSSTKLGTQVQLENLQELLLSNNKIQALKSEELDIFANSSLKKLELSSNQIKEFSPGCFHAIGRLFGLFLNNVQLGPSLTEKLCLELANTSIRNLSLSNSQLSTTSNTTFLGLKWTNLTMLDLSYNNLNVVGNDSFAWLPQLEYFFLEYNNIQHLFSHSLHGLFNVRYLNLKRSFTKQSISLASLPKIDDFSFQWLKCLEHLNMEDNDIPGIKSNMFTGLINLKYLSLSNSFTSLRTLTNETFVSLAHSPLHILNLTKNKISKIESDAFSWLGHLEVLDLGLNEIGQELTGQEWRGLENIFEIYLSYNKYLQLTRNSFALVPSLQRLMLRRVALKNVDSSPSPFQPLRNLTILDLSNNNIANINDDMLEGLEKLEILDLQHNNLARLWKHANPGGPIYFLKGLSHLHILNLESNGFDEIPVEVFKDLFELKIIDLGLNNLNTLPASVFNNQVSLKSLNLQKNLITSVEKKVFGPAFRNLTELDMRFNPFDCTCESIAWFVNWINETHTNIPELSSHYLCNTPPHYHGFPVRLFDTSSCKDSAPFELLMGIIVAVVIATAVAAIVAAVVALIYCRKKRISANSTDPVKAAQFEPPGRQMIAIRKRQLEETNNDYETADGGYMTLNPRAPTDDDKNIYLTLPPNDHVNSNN
# Text: (§1) The hematopoietic cell line U937 was used for further biological investigation because of the ability of this cell line to display calcium mobilization upon cross-linking of endogenous CD32a using anti-CD32a antibodies followed by secondary antibody (as detected by fluorimetry following loading of the cells with Indo-1 or Fluo-4). Thus, U937 cells express all of the cellular components required for calcium mobilization mediated through CD32a activation.
# (§2) Transient transfection of the pTLR3/CD32a and pTLR2/CD32a expression vectors into U937 allowed high level cell surface expression of the chimeric molecule as detected with anti-TLR3 or anti-TLR2 antibodies, while no expression was observed on untransfected cells or cells transfected with the other chimeric vector.
# Poly-IC, a synthetic double-stranded RNA ligand for TLR3, was then tested for its ability to stimulate the chimeric TLR3/CD32a receptor. Poly(I) (15, 30 and 40 mers) and poly(C) (15, 30 and 40 mers) (Ambion, Huntingdon, Cambridgeshire, U.K. and Invitrogen, Cergy Pontoise, France respectively) were annealed in equal proportions according to their size for 15 minutes at 95° C. Independently, fragmentation of high molecular weight poly-IC (>5000 bp) was performed by metal-induced hydrolysis as recommended by Affymetrix (High Wycombe, UK). Briefly, 200 μg poly-IC was incubated with 40 μl of 5×RNA fragmentation buffer (200 mM Tris-acetate, pH 8.1, 500 mM KOAc, 150 mM MgOAc) in a final volume of 200 μl, for 35 min at […]. Fragmented poly-IC (100-200 bp) was then allowed to reach room temperature before purification. The relative sizes of dsRNA fragments were examined by electrophoresis in 2% agarose gel.
# [2] = test system: chimeric TLR2/CD32a receptor; assay: Calcium mobilization in untransfected U937 cells or cells transfected with pTLR2/CD32a (specificity control); assay type: cell-based, human
# Text: as §1, §2
# PBMC = assay: Cytokine induction in PBMC; assay type: cell-based
# [3] = target: T1, chimeric TLR3/CD32a receptor; assay: Calcium mobilization in U937 clones stably transfected with pTLR3/CD32a; assay type: cell-based
# Text: U937 cells were stably transfected with pTLR3/CD32a using co-transfection with an antibiotic-encoding plasmid and antibiotic selection followed by limiting dilution cloning. Clones were selected based on their cell surface expression level of TLR3. […] These clones expand very easily (up to 10^9 cells) and can be maintained for several months in culture without losing the expression of the chimeric receptor. […] Such stable clones provide a useful method for high through-put screening of candidate agents for the identification of TLR agonists and antagonists.
# [4] = test system: chimeric TLR3/CD32a receptor lacking two N-glycosylation sites (N196 and N247); assay: NFκB luciferase reporter in HEK 293 cells co-transfected with chimeric TLR3/CD32a lacking two N-glycosylation sites; assay type: cell-based, human
# Text: In order to determine the role of glycosylation in ligand recognition by TLR3, a chimeric TLR3/CD32a receptor lacking two N-glycosylation sites (N196 and N247 as numbered at Genbank Acc. No. NP_003256) was generated by site-directed mutagenesis and co-transfected into HEK 293 cells with a reporter plasmid containing concensus NFκB sites which, when activated, directs the expression of firefly luciferase.
# [5] = target: T1, chimeric TLR3/CD32a receptor; assay: Effect of extracellular pH on calcium mobilization in U937 cells expressing chimeric TLR3/CD32a; assay type: cell-based; settings: pH range 5.5-7.5
# Text: Wild type TLR3 has previously been described as an intracellular receptor, at least in dendritic cells (DC), and interaction with its ligand occurs in early endosomes. […] U937 cells expressing the chimeric human TLR3/CD32a receptor at the cell surface were used to investigate the effect of the extracellular pH on poly-IC-mediated calcium mobilization.
# Sequence of chimeric TLR2/CD32a receptor (as listed by the source, change not shown): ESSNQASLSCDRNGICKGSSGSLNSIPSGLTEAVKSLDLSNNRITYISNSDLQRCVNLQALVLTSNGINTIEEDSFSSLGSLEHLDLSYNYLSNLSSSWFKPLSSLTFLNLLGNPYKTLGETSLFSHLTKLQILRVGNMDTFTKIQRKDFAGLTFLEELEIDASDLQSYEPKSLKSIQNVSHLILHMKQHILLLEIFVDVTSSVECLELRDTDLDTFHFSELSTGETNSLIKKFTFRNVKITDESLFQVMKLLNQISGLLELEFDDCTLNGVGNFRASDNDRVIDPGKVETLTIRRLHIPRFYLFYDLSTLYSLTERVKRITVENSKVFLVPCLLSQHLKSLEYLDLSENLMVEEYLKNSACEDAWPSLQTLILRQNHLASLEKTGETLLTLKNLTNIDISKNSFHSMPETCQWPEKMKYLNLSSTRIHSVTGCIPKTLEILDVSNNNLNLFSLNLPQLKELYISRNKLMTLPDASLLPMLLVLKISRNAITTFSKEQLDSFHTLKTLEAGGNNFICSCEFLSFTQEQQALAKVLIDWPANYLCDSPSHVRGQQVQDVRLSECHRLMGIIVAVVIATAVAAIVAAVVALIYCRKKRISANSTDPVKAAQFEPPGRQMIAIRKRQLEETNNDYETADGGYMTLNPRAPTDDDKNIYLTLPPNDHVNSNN
substance,measurement,setting,value
poly-IC,calcium mobilization,"[1]; U937 transiently transfected with pTLR3/CD32a, fluorimetry with Indo-1 or Fluo-4",immediate calcium mobilization of similar intensity to that induced by anti-TLR antibodies
same,dose required to detect biological response (calcium mobilization),"[1]; dose response, transiently transfected U937",0.025 μg/ml
same,response to a second stimulation after sequential stimulation,"[1]; optimal concentration, second stimulation with poly-IC or anti-TLR3-mediated cross-linking",desensitization
same,calcium mobilization,[2],no calcium mobilization
same,dose required to detect cytokine induction,PBMC,2.5 µg/mL
same,sensitivity in dose response (calcium mobilization),[3]; stable U937 clones,10 to 30 ng/mL
same,calcium mobilization,[3]; stable U937 clones with cell surface expression of the chimeric receptor,robust calcium mobilization
same,activity on mutant TLR3 (NFκB luciferase reporter),[4],completely inactive
same,pH required for optimal response (calcium mobilization),[5],6.5
same,pH that prevented biological response (calcium mobilization),[5],≥ 7.2
